Data set [1] deals with A549-Dual cells. Description: Single-point kinase inhibitor library screen: nLuc expression from NP-1+mRNA-nLuc in IFN-treated cells. The following applies: compound 50 μM pre-treatment, NP-1+mRNA 20 ng/well + IFN; for fold induction at 50 µM: Homo sapiens, read-out: fold nLuc over RNA + IFN. It is filed as cell-based, human. As to the method:
(§1) The cells produce secreted embryonic alkaline phosphatase (SEAP), under the control of the interferon beta […] minimal promoter fused to five NF-κB binding sites. The cells also secrete lucia luciferase under the control of IFIT2 promoter.
To measure protein expression from mRNA, which is the primary readout for compound down selection, mRNA encoding a secreted version of nanoluciferase (mRNA-nLuc) was used. Protein expression was measured via a luminometer using standard techniques.
As additional criterion, expression in compound treated cells was compared relative to mRNA-transfected cells without IFN (“RNA only”) (data not shown).
A library of small molecule kinase inhibitors was screened for the ability to enhance expression of mRNA-encoded genes when co-delivered with mRNA.

In data set [2] the test system is IFIT2. The data set is described as follows: Single-point screen: IFIT2 activation (Lucia luciferase, QUANTI-Luc). The note with it: A549-Dual cells, compound 50 μM pre-treatment, NP-1+mRNA 20 ng/well + IFN; for fold induction at 50 µM: Homo sapiens, 24 h, read-out: fold IFIT over IFN. In kind it is cell-based, human.
Description: as §1

The subject of data set [3] is NF-κB. Description: Single-point screen: NFκB activation (SEAP reporter). It is filed as cell-based, human. The note with it: A549-Dual cells, compound 50 μM pre-treatment, NP-1+mRNA 20 ng/well + IFN; for fold induction at 50 µM: Homo sapiens, 24 h, read-out: fold NFkB over IFN.
Description: as §1

Data set [4] deals with A549-Dual cells. Description: Single-point screen: cell viability by CellTiter-Glo. The note with it: A549-Dual cells incubated overnight with compound at 50 μM, then NP-1+mRNA 20 ng/well + IFN 1:50. (In general: ATP-based viability assays read luminescence as a measure of living cells.)
Description: Finally, cell lysates were assayed with the CellTiter-GLO® assay (Promega) to obtain a luminescent-based measure of cell viability. In summary, the readouts from the high throughput screen included the primary measure of nLuc protein expression and three secondary readouts: IFIT, NF-κB and cell viability.
For each assay, A549-dual cells were plated at a seeding density of about 5×10^4 cells per well. Cells were incubated overnight with compounds at 50 microMolar (μM) in 1% v/v dimethyl sulfoxide (DMSO). For control wells, 1% DMSO was added to each well. After about 24 hours, the culture medium was removed, and cells were transfected with NP-1+mRNA at 20 ng/mRNA/well in Opti-MEM® media (Thermofisher). Interferon (IFN) was diluted to 1:50 in all test wells except for the RNA only wells and media only wells. Anti-IFN was diluted 1:1000 in “RNA+anti-IFN+IFN” wells. Cells were incubated for 4 hours, and culture medium was added to the Opti-MEM® medium. After 24 hours, assay supernatants were collected and analyzed for nLuc expression, IFIT2 (qLuc), and NFκB (qBLUE-SEAP™, InvivoGen) activation. Cells were then lysed, and cell viability was determined by CellTiter-Glo® (Promega) assay.

Structures can show the parent of a compound that is named as a salt.

As to `Cn1nc(C(C)(C)C)cc1NC(=O)Nc1ccc(Oc2ccncc2)cc1` [MAPK13-IN-1, 1-(5-tert-buty-2-methylpyrazol-3-yl)-3-(4-pyridin-4-yloxyphenyl)urea], the “fold nLuc over RNA + IFN” value in data set [1] was determined as 207.89 fold. The “fold IFIT over IFN” value in data set [2] was found to be 1.93 fold. The “fold NFkB over IFN” value in data set [3] was determined as 0.66 fold. For the same molecule, the “% viability” value in data set [4] worked out at 59%.
Turning to `COCCOc1ccc(-c2cn(-c3ccccc3)c3nc[nH]c(=O)c23)cc1` [DMX-5804, 5-[4-(2-methoxyethoxy)phenyl]-7-phenyl-3H-pyrrolo[2,3-d]pyrimidin-4-one], the fold induction at 50 µM in data set [1] worked out at 267; in data set [2], 0.4; in data set [3] it was 1.35. For the same molecule, in data set [4], the “% viability” value worked out at 92%.
For the molecule `COc1ccc(CCNCc2ccc(OCc3ccc(Cl)nc3)c(OC)c2)cc1OC` [SBE13 (Hydrochloride)], the “fold nLuc over RNA + IFN” value in data set [1] was found to be 179.07 fold. In data set [2], the “fold IFIT over IFN” value is recorded as 0.32 fold. Moreover, the “fold NFkB over IFN” value in data set [3] turned out to be 0.73 fold. The “% viability” value in data set [4] was determined as 105%.
As to `O=C1NCCSc2c1sc1ccc(O)cc21` [kb NB 142-70, 9-hydroxy-3,4-dihydro-2H-[1]benzothiolo[2,3-f][1,4]thiazepin-5-one], the fold induction at 50 µM in data set [1] was 187; in data set [2] it was 2.31; in data set [3] it was 0.61. In addition, the “% viability” value in data set [4] is listed as 52%.
With `C[C@H](Nc1cc(-c2cnn(C)c2)cc(Nc2cnccn2)n1)c1ccc(F)cc1` [Ilginatinib, 6-N-[(1S)-1-(4-fluorophenyl)ethyl]-4-(1-methylpyrazol-4-yl)-2-N-pyrazin-2-ylpyridine-2,6-diamine], the “fold nLuc over RNA + IFN” value in data set [1] stood at 115.95 fold. For the same molecule, the fold induction at 50 µM in data set [2] worked out at 1.89; in data set [3], 1.12.
Consider `CN1CC[C@@H](c2c(O)cc(O)c3c(=O)cc(-c4ccc(C(F)(F)F)cc4Cl)oc23)[C@@H]1CO` [Voruciclib (hydrochloride), 2-[2-chloro-4-(trifluoromethyl)phenyl]-5,7-dihydroxy-8-[(2R,3S)-2-(hydroxymethyl)-1-methylpyrrolidin-3-yl]chromen-4-one], for which the fold induction at 50 µM in data set [1] came out at 274; in data set [2] it was 0.8; in data set [3], 0.63.
On to `C[C@H](Nc1cc(-c2cnn(C)c2)cc(Nc2cnccn2)n1)c1ccc(F)cc1.Cl` [Ilginatinib hydrochloride, 6-N-[(1S)-1-(4-fluorophenyl)ethyl]-4-(1-methylpyrazol-4-yl)-2-N-pyrazin-2-ylpyridine-2,6-diamine; hydrochloride], for which the “fold nLuc over RNA + IFN” value in data set [1] was 484.10 fold. Also, the fold induction at 50 µM in data set [2] was 3.17; in data set [3], 1.39.
Regarding `Cc1cc(F)c(C(=O)Nc2cccc(-c3nncn3C(C)C)n2)cc1-n1cnc(C2CC2)c1` [Selonsertib, 5-(4-cycloproplirnidazol-1-yl)-2-fluoro-4-methyl-N-[6-(4-propan-2-yl-1,2,4-triazol-3-yl)pyridin-2-yl]benzamide], the figures for the fold induction at 50 µM in data set [1], in data set [2] and in data set [3] were 112, 1.43 and 0.9, respectively.
Consider `Cc1cnc(-c2cnc(NCCNc3ccc(C#N)cn3)nc2-c2ccc(Cl)cc2Cl)[nH]1` [CHIR-99021 (monohydrochloride), 6-[2-[[4-(2,4-dichlorophenyl)-5-(5-methyl-1H-imidazol-2-yl)pyrimidin-2-yl]amino]ethylamino]pyridine-3-carbonitrile], for which the fold induction at 50 µM worked out at 116 in data set [1], 0.35 in data set [2] and 0.71 in data set [3].
On to `CN1CC[C@H](c2c(O)cc(O)c3c(=O)cc(-c4ccc(C(F)(F)F)cc4Cl)oc23)[C@H]1CO` [(2S,3R)-Voruciclib (hydrochloride), 2-[2-chloro-4-(trifluoromethyl)phenyl]-5,7-dihydroxy-8-[(2S,3R)-2-(hydroxymethyl)-1-methylpyrrolidin-3-yl]chromen-4-one; hydrochloride], for which the results for the fold induction at 50 µM in data set [1], in data set [2] and in data set [3] were 113, 1.09 and 0.26, respectively.
